# Laboratory results taken from US9145392B2, “Imidazole amines as modulators of kinase activity” (Merck Patent GmbH, priority 2011, dated 2015).
# Tests used:
# [1] = target: P70S6K (T412E mutant) (Homo sapiens (Human), UniProt P23443, T412E); test: P70S6K enzyme assay; type: biochemical; conditions: read-out: IC50 p70S6K
# In short: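 Phosphorylated product and substrate peptide separated by microfluidic capillary electrophoresis (Caliper LabChip 3000), product peaks resolving before substrate.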
# [2] = target: His-AKT (Full Length) (Homo sapiens (Human), UniProt P31749); test: AKT enzyme assay; type: biochemical; conditions: read-out: IC50 AKT
# Sequence of His-AKT (Full Length) (P31749 whole entry): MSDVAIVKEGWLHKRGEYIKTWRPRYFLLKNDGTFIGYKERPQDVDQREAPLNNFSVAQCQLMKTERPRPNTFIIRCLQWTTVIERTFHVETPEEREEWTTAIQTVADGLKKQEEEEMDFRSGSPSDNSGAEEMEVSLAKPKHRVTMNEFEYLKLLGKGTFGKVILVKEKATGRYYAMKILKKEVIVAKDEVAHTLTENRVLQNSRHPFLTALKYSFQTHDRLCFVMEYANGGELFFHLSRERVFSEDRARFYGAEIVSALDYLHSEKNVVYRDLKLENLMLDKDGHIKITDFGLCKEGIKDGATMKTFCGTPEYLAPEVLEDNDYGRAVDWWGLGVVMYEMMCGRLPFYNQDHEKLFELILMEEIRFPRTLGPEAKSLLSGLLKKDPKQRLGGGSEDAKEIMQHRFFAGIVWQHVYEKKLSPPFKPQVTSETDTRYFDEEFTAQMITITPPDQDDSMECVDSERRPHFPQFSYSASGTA
# Sequence of P70S6K (T412E mutant) (P23443 whole entry T412E): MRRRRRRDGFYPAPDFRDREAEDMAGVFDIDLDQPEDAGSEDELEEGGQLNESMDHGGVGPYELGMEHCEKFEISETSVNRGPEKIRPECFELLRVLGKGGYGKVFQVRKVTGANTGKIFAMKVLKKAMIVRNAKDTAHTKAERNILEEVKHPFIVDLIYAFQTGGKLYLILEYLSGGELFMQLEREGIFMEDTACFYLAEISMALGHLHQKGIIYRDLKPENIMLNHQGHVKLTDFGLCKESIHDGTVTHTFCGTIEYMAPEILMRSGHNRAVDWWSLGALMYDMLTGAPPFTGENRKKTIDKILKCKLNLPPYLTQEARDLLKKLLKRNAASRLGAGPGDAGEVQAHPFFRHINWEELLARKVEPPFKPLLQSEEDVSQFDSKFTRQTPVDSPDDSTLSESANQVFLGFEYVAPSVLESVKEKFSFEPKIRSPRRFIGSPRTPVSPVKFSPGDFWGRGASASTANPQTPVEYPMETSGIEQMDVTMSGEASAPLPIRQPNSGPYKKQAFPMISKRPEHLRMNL
SMILES,IC50 [1],IC50 [2]
"Cc1cc(-c2cn(CC3CNC3)c(C3CCN(c4ncnc(N)c4C(C)C)CC3)n2)ccc1F [Compound 189, 6-(4-(1-(azetidin-3-ylmethyl)-4-(4-fluoro-3-methylphenyl)-1H-imidazol-2-yl)piperidin-1-yl)-5-isopropylpyrimidin-4-amine]",1.1 nM,4.5 nM
"Cc1cc(-c2cn(CC3CNC3)c(C3CCN(c4ncnc(N)c4C#N)CC3)n2)ccc1F [Compound 191, 4-amino-6-(4-(1-(azetidin-3-ylmethyl)-4-(4-fluoro-3-methylphenyl)-1H-imidazol-2-yl)piperidin-1-yl)pyrimidine-5-carbonitrile]",7.4 nM,15 nM
"CNc1ncnc(N2CCC(c3nc(-c4ccnc(C(F)(F)F)c4)cn3CCN3CCC3)CC2)c1Cl [Compound 192, 6-(4-(1-(2-(azetidin-1-yl)ethyl)-4-(2-(trifluoromethyl)pyridin-4-yl)-1H-imidazol-2-yl)piperidin-1-yl)-5-chloro-N-methylpyrimidin-4-amine]",2700 nM,7200 nM
"CNc1ncnc(N2CCC(c3nc(-c4ccc(F)c(C)c4)cn3CC3CNC3)CC2)c1Cl [Compound 193, (6-{4-[1-Azetidin-3-ylmethyl-4-(4-fluoro-3-methyl-phenyl)-1H-imidazol-2-yl]-piperidin-1-yl}-5-chloro-pyrimidin-4-yl)-methyl-amine]",1300 nM,5700 nM
"Cc1cc(-c2cn(CC3CNC3)c(C3CCC(c4ncnc(N)c4C(C)C)CC3)n2)ccc1F (stereo not drawn) [Compound 194, 6-(4-(1-(azetidin-3-ylmethyl)-4-(4-fluoro-3-methylphenyl)-1H-imidazol-2-yl)cyclohexyl)-5-isopropylpyrimidin-4-amine]",3.4 nM,16 nM
"CCc1c(N)ncnc1N1CCC(c2nc(-c3ccc(F)cc3)cn2CCN2CCOCC2)CC1 [Compound 195, 5-Ethyl-6-{4-[4-(4-fluoro-phenyl)-1-(2-morpholin-4-yl-ethyl)-1H-imidazol-2-yl]-piperidin-1-yl}-pyrimidin-4-ylamine]",16 nM,> 1000 nM
"CCc1c(N)ncnc1N1CCC(c2nc(-c3ccc(F)c(F)c3)cn2CCN2CCOCC2)CC1 [Compound 196, 6-{4-[4-(3,4-Difluoro-phenyl)-1-(2-morpholin-4-yl-ethyl)-1H-imidazol-2-yl]-piperidin-1-yl}-5-ethyl-pyrimidin-4-ylamine]",5.5 nM,370 nM
"CCc1c(N)ncnc1N1CCC(c2nc(-c3ccc(F)cc3)cn2CCN2CC3(COC3)C2)CC1 [Compound 197, 5-Ethyl-6-(4-{4-(4-fluoro-phenyl)-1-[2-(2-oxa-6-aza-spiro[3.3]hept-6-yl)-ethyl]-1H-imidazol-2-yl}-piperidin-1-yl)-pyrimidin-4-ylamine]",6.3 nM,130 nM
"CCc1c(N)ncnc1N1CCC(c2nc(-c3ccc(F)c(F)c3)cn2CCN2CC3(COC3)C2)CC1 [Compound 198, 6-(4-{4-(3,4-Difluoro-phenyl)-1-[2-(2-oxa-6-aza-spiro[3.3]hept-6-yl)-ethyl]-1H-imidazol-2-yl}-piperidin-1-yl)-5-ethyl-pyrimidin-4-ylamine]",11 nM,255 nM
"CCc1c(N)ncnc1N1CCC(c2nc(-c3ccc(F)c(F)c3)cn2CCN2CC(F)C2)CC1 [Compound 199, 6-(4-{4-(3,4-Difluoro-phenyl)-1-[2-(3-fluoro-azetidin-1-yl)-ethyl]-1H-imidazol-2-yl}-piperidin-1-yl)-5-ethyl-pyrimidin-4-ylamine]",12 nM,385 nM
"CCc1c(N)ncnc1N1CCC(c2nc(-c3ccc(F)cc3)cn2CCN2CC(F)C2)CC1 [Compound 200, 5-Ethyl-6-{4-[1-[2-(3-fluoro-azetidin-1-yl)-ethyl]-4-(4-fluoro-phenyl)-1H-imidazol-2-yl]-piperidin-1-yl}-pyrimidin-4-ylamine]",21 nM,640 nM
"CCc1c(N)ncnc1N1CCC(c2nc(-c3ccc(F)cc3)cn2CCN2CCC3(COC3)C2)CC1 [Compound 201, 5-Ethyl-6-(4-{4-(4-fluoro-phenyl)-1-[2-(2-oxa-6-aza-spiro[3.4]oct-6-yl)-ethyl]-1H-imidazol-2-yl}-piperidin-1-yl)-pyrimidin-4-ylamine]",16 nM,> 1000 nM
"CCc1c(N)ncnc1N1CCC(c2nc(-c3ccc(F)c(F)c3)cn2CCN2CCC3(COC3)C2)CC1 [Compound 202, 6-(4-{4-(3,4-Difluoro-phenyl)-1-[2-(2-oxa-6-aza-spiro[3.4]oct-6-yl)-ethyl]-1H-imidazol-2-yl}-piperidin-1-yl)-5-ethyl-pyrimidin-4-ylamine]",9 nM,89 nM
"CCc1c(N)ncnc1N1CCC(c2nc(-c3ccc(F)c(F)c3)cn2CCN2CCC23COC3)CC1 [Compound 203, 6-(4-{4-(3,4-Difluoro-phenyl)-1-[2-(6-oxa-1-aza-spiro[3.3]hept-1-yl)-ethyl]-1H-imidazol-2-yl}-piperidin-1-yl)-5-ethyl-pyrimidin-4-ylamine]",30 nM,2500 nM
"CCc1c(N)ncnc1N1CCC(c2nc(-c3ccc(F)cc3)cn2CCN2CCC23COC3)CC1 [Compound 204, 5-Ethyl-6-(4-{4-(4-fluoro-phenyl)-1-[2-(6-oxa-1-aza-spiro[3.3]hept-1-yl)-ethyl]-1H-imidazol-2-yl}-piperidin-1-yl)-pyrimidin-4-ylamine]",37 nM,3600 nM
"N#Cc1c(N)ncnc1N1CCC(c2nc(-c3cnc(F)c(Cl)c3)cn2CCN2CCC2)CC1 [Compound 205, 4-Amino-6-{4-[1-(2-azetidin-1-yl-ethyl)-4-(5-chloro-6-fluoro-pyridin-3-yl)-1H-imidazol-2-yl]-piperidin-1-yl}-pyrimidine-5-carbonitrile]",0.8 nM,1.3 nM
"N#Cc1c(N)ncnc1N1CCC(c2nc(-c3ccnc(F)c3)cn2CCN2CCC2)CC1 [Compound 206, 4-Amino-6-{4-[1-(2-azetidin-1-yl-ethyl)-4-(2-fluoro-pyridin-4-yl)-1H-imidazol-2-yl]-piperidin-1-yl}-pyrimidine-5-carbonitrile]",2.4 nM,13 nM
"N#Cc1c(N)ncnc1N1CCC(c2nc(-c3ccc4[nH]ncc4c3)cn2CCN2CCC2)CC1 [Compound 207, 4-Amino-6-{4-[1-(2-azetidin-1-yl-ethyl)-4-(1H-indazol-5-yl)-1H-imidazol-2-yl]-piperidin-1-yl}-pyrimidine-5-carbonitrile]",22 nM,105 nM
CCc1c(N)ncnc1N1CCC(c2nc(-c3ccc(F)c(C(F)(F)F)c3)cn2CCN2CCCC2)CC1 [Compound 208],3.2 nM,7.6 nM
Nc1ncnc(N2CCC(c3nc(-c4ccc(F)c(C(F)(F)F)c4)cn3CCN3CCCC3)CC2)c1Cl [Compound 209],3.1 nM,2.2 nM

SMILES,IC50 [1],IC50 [2]
Nc1ncnc(N2CCC(c3nc(-c4ccc(O)c(C(F)(F)F)c4)cn3CCN3CCCC3)CC2)c1Cl [Compound 210],3.7 nM,3 nM
Nc1ncnc(N2CCC(c3nc(-c4ccc(F)c(C(F)(F)F)c4)cn3CCN3CCCC3)CC2)c1F [Compound 211],23 nM,23 nM
C=C(C)c1c(N)ncnc1N1CCC(c2nc(-c3ccc(F)c(C(F)(F)F)c3)cn2CCN2CCCCC2)CC1 [Compound 212],6.7 nM,16 nM
C=C(C)c1c(N)ncnc1N1CCC(c2nc(-c3ccc(F)c(C(F)(F)F)c3)cn2CCN2CCCC2)CC1 [Compound 213],7.9 nM,20 nM
Nc1cc(N2CCC(c3nc(-c4ccc(F)c(C(F)(F)F)c4)cn3CCN3CCCC3)CC2)ncn1 [Compound 214],50 nM,180 nM
Cc1c(N)ncnc1N1CCC(c2nc(-c3ccc(F)c(C(F)(F)F)c3)cn2CCN2CCCC2)CC1 [Compound 215],6.1 nM,10 nM
Nc1ncnc(N2CCC(c3nc(-c4ccc(F)c(C(F)(F)F)c4)cn3CCN3CCCCC3)CC2)c1Cl [Compound 216],3.8 nM,9 nM
Nc1ncnc(N2CCC(c3nc(-c4ccc(F)c(C(F)(F)F)c4)cn3CCN3CCC3)CC2)c1Br [Compound 217],1.5 nM,2.3 nM
Nc1ncnc(N2CCC(c3nc(-c4ccc(F)c(C(F)(F)F)c4)cn3CCN3CCC3)CC2)c1Cl [Compound 218],0.6 nM,1 nM
Nc1ncnc(N2CCC(c3nc(-c4ccc(F)c(C(F)(F)F)c4)cn3CCN3CCC3)CC2)c1-c1ccc(F)cc1 [Compound 219],2.4 nM,2.3 nM
C=Cc1c(N)ncnc1N1CCC(c2nc(-c3ccc(F)c(C(F)(F)F)c3)cn2CCN2CCC2)CC1 [Compound 220],2.6 nM,4.2 nM
Nc1cc(N2CCC(c3nc(-c4ccc(F)c(C(F)(F)F)c4)cn3CCN3CCC3)CC2)ncn1 [Compound 221],21 nM,71 nM
COC(=O)c1ccc(-c2c(N)ncnc2N2CCC(c3nc(-c4ccc(F)c(C(F)(F)F)c4)cn3CCN3CCC3)CC2)cc1 [Compound 222],11 nM,43 nM
COC(=O)c1ccc(-c2c(N)ncnc2N2CCC(c3nc(-c4ccc(F)c(C(F)(F)F)c4)cn3CCN3CCCC3)CC2)cc1 [Compound 223],21 nM,78 nM
Nc1ncnc(N2CCC(c3nc(-c4ccc(F)c(C(F)(F)F)c4)cn3CCN3CCC3)CC2)c1-c1ccc(C(=O)O)cc1 [Compound 224],5.7 nM,12 nM
Nc1ncnc(N2CCC(c3nc(-c4ccc(F)c(C(F)(F)F)c4)cn3CCN3CCCC3)CC2)c1-c1ccc(C(=O)O)cc1 [Compound 225],5.8 nM,12 nM
Nc1ncnc(N2CCC(c3nc(-c4ccc(F)c(F)c4)cn3CCN3CCCC3)CC2)c1Br [Compound 226],1.3 nM,1.7 nM
Nc1ncnc(N2CCC(c3nc(-c4ccc(F)cc4)cn3CCN3CCCC3)CC2)c1Br [Compound 227],1.4 nM,2.9 nM
Nc1ncnc(N2CCC(c3nc(-c4cccc(F)c4)cn3CCN3CCCC3)CC2)c1Br [Compound 228],1.4 nM,5.9 nM
